Columns and labels:
[1] = test system: monoamine oxidase; experiment: MPTP mouse model: monoamine oxidase fluorometric assay of total brain protein extract; details: for Monoamine oxidase fluorometric assay: total brain protein extract, control = 100
[2] = test system: C57BL/6 mice; experiment: Mortality after MPTP intoxication; assay type: in vivo; details: 24 hours after treatment by the MPTP
Excerpt: Brain samples were collected after mice anesthesia and sacrifice.

[3] = test system: tyrosine hydroxylase expression; experiment: MPTP mouse model: tyrosine hydroxylase ELISA assay of total brain protein extract; details: for Mean expression of tyrosine hydroxylase: ELISA, control 0.275
Experimental: The microliter plate wells were coated overnight at 4° C. with 5 μg of total brain protein extract. All unbound sites were blocked with a blocking buffer 10% FCS in PBS 1 hour at room temperature. Then, the anti-tyrosine hydroxylase rabbit polyclonal antibody, diluted 1:1000 was added for 2 hours at room temperature.

[4] = test system: human cord blood mast cells; details: cited from earlier work
[5] = test system: tyrosine hydroxylase expression; experiment: MPTP mouse model: tyrosine hydroxylase immunohistochemistry on coronal brain sections; assay type: in vivo, C57BL/6 mice; details: MPTP + masitinib 2×5 mg/kg; 5 μm-thick coronal sections
Experimental: The 5 μM-thick coronal sections were deparaffinized and hydrated, Endogenous peroxydase were inhibited with a dual endogenous enzyme block solution (Cat #S2003, DakoCytonation). Non specific protein binding was blocked with 1% BSA in PBS, pH=7,4. […] Peroxidase staining was obtained using the AbCys Histogreen substrate kit (Cat #E109, AbCys) and counterstained with a Neutral Red solution. After dehydration the sections were cover-slipped with Eukitt®.

Row | Compound | Monoamine oxidase fluorometric assay ([1]; MPTP alone) | mortality [2] | Mean expression of tyrosine hydroxylase ([3]; MPTP alone (4 × 20 mg/kg), solvent treated) | Monoamine oxidase fluorometric assay ([1]; MPTP + masitinib 2 × 5 mg/kg) | activity of monoamine oxidase with respect to the control group ([1]; MPTP in combination with masitinib) | FccRI-mediated degranulation of human cord blood mast cells [4] | attenuation of tyrosine hydroxylase destruction by immunohistochemistry [5] | decrease of tyrosine hydroxylase expression in response to MPTP treatment ([3]; MPTP + masitinib 2×5 mg/kg cohort) | Mean expression of tyrosine hydroxylase ([3]; MPTP + masitinib 2 × 5 mg/kg per os, day -7 to day 7) | Mean expression of tyrosine hydroxylase ([3]; masitinib alone 2 × 30 mg/kg per os, no MPTP) | basal expression of tyrosine hydroxylase compared with control ([3]; masitinib alone, no MPTP)
1 | CN1CC=C(c2ccccc2)CC1 [MPTP, 1-methyl-4-phenyl-1,2,3,6-tetrahydropyridine, reference compound] | 108 | No mortality | 0.175 |  |  |  |  |  |  |  | 
2 | Cc1ccc(NC(=O)c2ccc(CN3CCN(C)CC3)cc2)cc1Nc1nc(-c2cccnc2)cs1 [Masitinib, 4-(4-methylpiperazin-1-ylmethyl)-N-[4-methyl-3-(4-pyridin-3ylthiazol-2-ylamino)phenyl]benzamide] |  |  |  | 115 | maintained | inhibition | reproducible | significantly diminished decrease | 0.215 | 0.225 | did not modify significantly

Reference: patent US20170119760A1 (AB SCIENCE, priority 2015, published 2017)
